33 compounds from patent US10927107B2, “Phenyl [a]indole[2,3-g]quinolizine compounds, preparation method therefor, pharmaceutical composition, and applications thereof” (Shanghai Institute of Materia Medica, Chinese Academy of …, priority 2016, dated 2021) can be followed below.

Molecules are shown by their SMILES.

For this assay, the system named is HepG2 cells. Briefly: In vitro lipid-lowering activity: DiI-LDL uptake in HepG2 cells. The class given is cell-based. The note with it: Homo sapiens, test compound 5 uM, 24 h, DiI-LDL 20 ug/ml, 3 h, FLU of sample group/FLU of blank group x100%, read-out: LDL uptake rate. The protocol: HepG2 cells were inoculated in 24-well plates, cultured in DMEM containing 10% FBS for 24 h or 48 h, and then transferred to DMEM containing 2% defatted serum and cultivated for 24 h. The old culture solution was discarded and replaced with new 2% defatted serum DMEM, and a test compound (the working concentration of which is 5 uM, triplicate for each sample) was added and incubated for 24 h. The old culture solution was abandoned and DMEM containing DiI-LDL (20 ug/ml) was added (300 ul/per 24 wells), incubated for 3 h. DMEM containing DiI-LDL was discarded, and cells were rinsed twice with PBS containing 0.4% BSA, and 3 times with PBS to remove excess DiI-LDL. Isopropanol was added (500 ul/per well of a 24-well plate), and was kept in darkness. After shaken for 20 minutes, 200 ul of supernatant was sucked to a black fluorescent plate, and fluorescence intensity (FLU) was detected at excitation light 520 nm and emission light 578 nm. The experimental results were calculated: LDL uptake rate=(FLU value of sample group to be tested/FLU value of blank group)×100%.
As for `COc1ccc2[nH]c3c(c2c1)C[C@@H]1c2cc(OC)c(OCc4ccc(C(F)(F)F)cc4)cc2CCN1C3` [(R)-C47, (R)-2,12-Dimethoxy-3-((4-(trifluoromethyl)benzyl)oxy)-5,6,8,9,14,14a-hexahydroindolo[3′,2′:4,5]pyrido[2,1-a]isoquinoline], the activity at 5 µM was found to be 292%.
With `COc1ccc2c(c1)c1c(n2CO)CN2CCc3cc(OCc4ccc(C(F)(F)F)cc4)c(OC)cc3C2C1` (stereo not drawn) [Example A57, (2,12-Dimethoxy-3-((4-(trifluoromethyl)benzyl)oxy)-5,6,14,14a-tetrahydroindolo[3′,2′:4,5]pyridine[2,1-a]isoquinoline-9(8H)-yl)methanol], the activity at 5 µM worked out at 112%.
Take `COc1cc2c(cc1OCc1ccc(C)cc1)CCN1Cc3[nH]c4ccccc4c3CC21` (stereo not drawn) [Example C60]: the activity at 5 µM is 84.3%.
In the case of `COc1ccc2[nH]c3c(c2c1)C[C@H]1c2cc(OCc4ccc(C(F)(F)F)cc4)c(OC)cc2CCN1C3` [(S)-C3], the activity at 5 µM amounted to 111%.
With `COc1ccc2[nH]c3c(c2c1)CC1c2cc(OC)c(OCc4cccc(C)c4)cc2CCN1C3` (stereo not drawn) [Example C106, 2,12-dimethoxy-3-((3-methylbenzyl)oxo)-5,6,8,9,14,14a-hexahydroindolo[3′,2′:4,5]pyridine[2,1-a]isoquinoline], the activity at 5 µM came out at 111%.
The figure for `COc1cc2c(cc1OCc1ccc(C)cc1)CCN1Cc3c(c4ccccc4n3CO)CC21` (stereo not drawn) [Example A70, (2-methoxy-3-((4-methylbenzyl)oxy)-5,6,14,14a-tetrahydroindolo[3′,2′:4,5]pyridine[2,1-a]isoquinoline-9(8H)-yl)methanol] is 80.6%; for `COc1ccc2[nH]c3c(c2c1)CC1c2cc(OC)c(OCc4ccc(F)cc4)cc2CCN1C3c1ccc(F)cc1` (stereo not drawn) [Example B59, 3-((4-fluorobenzyl)oxo)-8-(4-fluorophenyl)-2,12-dimethoxy-5,6,8,9,14,14a-hexahydroindole[3′,2′:4,5]pyridine[2,1-a]isoquinoline] it is 109%; for `COc1ccc2c(c1)c1c(n2CO)CN2CCc3cc(OC)c(OCc4ccccc4)cc3[C@@H]2C1` [(S)-A1] it is 116%.
Under `COc1ccc2[nH]c3c(c2c1)CC1c2cc(OC)c(OCc4cccc(F)c4)cc2CCN1C3` (stereo not drawn) [Example C51, 3-((3-Fluorobenzyl)oxo)-2,12-dimethoxy-5,6,8,9,14,14a-hexahydroindole[3′,2′:4,5]pyridine[2,1-a]isoquinoline] stands 192%; under `COc1ccc2c(c1)c1c(n2CO)CN2CCc3cc(OCc4ccccc4)c(OC)cc3[C@@H]2C1` [(S)-A55], 120%.
The figure for `COc1cc2c(cc1OCc1cccc(C)c1)CCN1Cc3[nH]c4ccccc4c3CC21` (stereo not drawn) [Example C107, 2-methoxy-3-((3-methylbenzyl)oxo)-5,6,8,9,14,14a-hexahydroindolo[3′,2′:4,5]pyridine[2,1-a]isoquinoline] is 69.5%; for `COc1ccc2[nH]c3c(c2c1)C[C@H]1c2cc(OC)c(OCc4ccc(C(F)(F)F)cc4)cc2CCN1C3` [(S)-C47, (S)-2,12-Dimethoxy-3-((4-(trifluoromethyl)benzyl)oxo)-5,6,8,9,14,14a-hexahydroindolo[3′,2′:4,5]pyrido[2,1-a]isoquinoline] it is 273%.
Turning to `COc1ccc2[nH]c3c(c2c1)CC1c2cc(OCc4ccc(C)cc4)c(OC)cc2CCN1C3c1ccc(F)cc1` (stereo not drawn) [Example B15, 8-(4-Fluorophenyl)-3,12-dimethoxy-2-((4-methylbenzyl)oxo)-5,6,8,9,14,14a-hexahydroindolo[3′,2′:4,5]pyridine[2,1-a]isoquinoline], the activity at 5 µM came out at 111%.
Consider `COc1cc2c(cc1OCc1ccc(F)cc1)C1Cc3c([nH]c4ccccc34)C(c3ccc(F)cc3)N1CC2` (stereo not drawn) [Example B6, 2-((4-fluorobenzyl)oxo)-8-(4-fluorophenyl)-3-methoxy-5,6,8,9,14,14a-hexahydroindole[3′,2′: 4,5]pyridine[2,1-a]isoquinoline], for which the activity at 5 µM was 108%.
For the compound `COc1ccc2c(c1)c1c(n2CO)CN2CCc3cc(OC)c(OCC(F)(F)F)cc3C2C1` (stereo not drawn) [Example A39, (3,12-Dimethoxy-2-(2,2,2-trifluoroethoxy)-5,6,14,14a-tetrahydroindolo[3′,2′:4,5]pyridine[2,1-a]isoquinoline-9(8H)-yl)methanol], the activity at 5 µM is 147%.
As for `COc1ccc2[nH]c3c(c2c1)CC1c2cc(OCc4ccccc4F)c(OC)cc2CCN1C3c1ccc(F)cc1` (stereo not drawn) [Example B9, 2-((2-fluorobenzyl)oxo)-8-(4-fluorophenyl)-3,12-dimethoxy-5,6,8,9,14,14a-hexahydroindole[3′,2′:4,5]pyridine[2,1-a]isoquinoline], the activity at 5 µM worked out at 94.3%.
The figure for `COc1ccc2c(c1)c1c(n2CO)CN2CCc3cc(OC)c(OCc4ccccc4)cc3[C@H]2C1` [(R)-A1] is 185%; for `CCOc1ccccc1OCCN[C@H](C)Cc1ccc(OC)c(S(N)(=O)=O)c1` [Positive control, Tamsulosin, reference compound] it is 138%.
Under `COc1cc2c(cc1OC)C1Cc3c(n(CO)c4ccccc34)CN1CC2` (stereo not drawn) [Example A38, (2,3-dimethoxy-5,6,14,14a-tetrahydroindolo[3′,2′:4,5]pyridine[2,1-a]isoquinoline-9(8H)-yl)methanol] stands 123%; under `COc1ccc2[nH]c3c(c2c1)C[C@@H]1c2cc(OCc4ccc(C(F)(F)F)cc4)c(OC)cc2CCN1C3` [(R)-C3], 218%; under `COc1ccc2c(c1)c1c(n2CO)CN2CCc3cc(OCc4ccccc4)c(OC)cc3[C@H]2C1` [(R)-A55], 200%.
Consider `COc1cccc(COc2cc3c(cc2OC)CCN2Cc4c(c5cc(OC)ccc5n4CO)CC32)c1` (stereo not drawn) [Example A13, (3,12-Dimethoxy-2-((3-methoxybenzyl)oxo)-5,6,14,14a-tetrahydroindolo[3′,2′:4,5]pyridine[2,1-a]isoquinoline-9(8H)-yl)methanol], for which the activity at 5 µM turned out to be 107%.
For `COc1cc2c(cc1OCc1ccc(F)cc1)CCN1Cc3c(c4ccccc4n3CO)CC21` (stereo not drawn) [Example A60], the activity at 5 µM is 108%.
Consider `OCn1c2c(c3ccccc31)CC1c3cc4c(cc3CCN1C2)OCO4` (stereo not drawn) [Example A109, (5,6,14,14a-tetrahydro-[1,3]dioxazo[4,5-g]indolo[3′,2′:4,5]pyridine[2,1-a]isoquinoline-9(8H)-yl)methanol], for which the activity at 5 µM worked out at 100%.
The figure for `COc1cc2c(cc1OCc1ccc(C)cc1)C1Cc3c([nH]c4ccccc34)C(c3ccc(F)cc3)N1CC2` (stereo not drawn) [Example B16, 8-(4-Fluorophenyl)-3-methoxy-2-((4-methylbenzyl)oxo)-5,6,8,9,14,14a-hexahydroindolo[3′,2′:4,5]pyridine[2,1-a]isoquinoline] is 107%; for `COc1cc2c(cc1OCc1ccc(F)cc1)CCN1C2Cc2c([nH]c3ccccc23)C1c1ccc(F)cc1` (stereo not drawn) [Example B60, 3-((4-fluorobenzyl)oxo)-8-(4-fluorophenyl)-2-methoxy-5,6,8,9,14,14a-hexahydroindole[3′,2′: 4,5]pyridine[2,1-a]isoquinoline] it is 114%.
For the compound `COc1cc2c(cc1OCc1cccc(C)c1)CCN1Cc3c(c4ccccc4n3CO)CC21` (stereo not drawn) [Example A143, (2-methoxy-3-((3-methylbenzyl)oxo)-5,6,14,14a-tetrahydroindolo[3′,2′:4,5]pyridine[2,1-a]isoquinoline-9(8H)-yl)methanol], the activity at 5 µM stood at 91.1%.
In the case of `COc1ccc2c(c1)c1c(n2CO)CN2CCc3cc(OC)c(OCc4ccccc4F)cc3C2C1` (stereo not drawn) [Example A9, (2-((2-fluorobenzyl)oxy)-3,12-dimethoxy-5,6,14,14a-tetrahydroindolo[3′,2′:4,5]pyridine[2,1-a]isoquinoline-9(8H)-yl)methanol], the activity at 5 µM is 113%.
`COc1ccc2[nH]c3c(c2c1)CC1c2cc(OC)c(OCc4cccc(F)c4)cc2CCN1C3c1ccc(F)cc1` (stereo not drawn) [Example B61, 3-((3-fluorobenzyl)oxo)-8-(4-fluorophenyl)-2,12-dimethoxy-5,6,8,9,14,14a-hexahydroindole[3′,2′:4,5]pyridine[2,1-a]isoquinoline]: the activity at 5 µM was found to be 116%.
The figure for `COc1cccc(COc2cc3c(cc2OC)CCN2C3Cc3c([nH]c4ccc(OC)cc34)C2c2ccc(F)cc2)c1` (stereo not drawn) [Example B13, 8-(4-Fluorophenyl)-3,12-dimethoxy-2-((3-methoxybenzyl)oxo)-5,6,8,9,14,14a-hexahydroindolo[3′,2′:4,5]pyridine[2,1-a]isoquinoline] is 105%.
The figure for `COc1cc2c(cc1OCc1ccccc1F)CCN1Cc3[nH]c4ccccc4c3CC21` (stereo not drawn) [Example C54, 3-((2-fluorobenzyl)oxo)-2-methoxy-5,6,8,9,14,14a-hexahydroindole[3′,2′:4,5]pyridine[2,1-a]isoquinoline] is 110%.
With `COc1ccc2c(c1)c1c(n2CO)CN2CCc3cc(OC)c(OCc4ccc(C)cc4)cc3C2C1` (stereo not drawn) [Example A15, (3,12-Dimethoxy-2-((4-methylbenzyl)oxy)-5,6,14,14a-tetrahydroindolo[3′,2′:4,5]pyridine[2,1-a]isoquinoline-9(8H)-yl)methanol], the activity at 5 µM was 115%.
As for `COc1ccc2c(c1)c1c(n2CO)CN2CCc3cc(OC)c(OC)cc3C2C1` (stereo not drawn) [Example A37, (2,3,12-Trimethoxy-5,6,14,14a-tetrahydroindolo[3′,2′:4,5]pyridine[2,1-a]isoquinoline-9(8H)-yl)methanol], the activity at 5 µM came out at 99.1%.
